Laboratory results taken from the Biogen ADME set (Fang et al. 2023).
Converted amounts (≈) assume the structure as drawn.

Details: for aqueous solubility: pH 6.8

Cc1cc(C)nc(Nc2ccc(C3CCCN(CC(=O)N4CCCC4)C3)nc2)n1 (stereo not drawn) showed an MDR1-MDCK efflux ratio of 41.3, an intrinsic clearance, human liver microsomes of 8.28 mL/min/kg and an intrinsic clearance, rat liver microsomes of 118 mL/min/kg. For the same compound, the aqueous solubility was 66.6 µg/mL (≈ 169 µM).
For Cn1cc(-c2nc(C(=O)Nc3ccc4c(c3)OCCCO4)cs2)cn1, the intrinsic clearance, human liver microsomes was 8.94 mL/min/kg, the intrinsic clearance, rat liver microsomes was 226 mL/min/kg and the aqueous solubility was 34 µg/mL (≈ 95.4 µM).
O=C(/C=C/c1ccc(Cl)cc1)N1CCC2(CC1)CN(Cc1ccc(Cl)c(Cl)c1)C(=O)O2 gave an MDR1-MDCK efflux ratio of 2.5, an intrinsic clearance, human liver microsomes of 22.8 mL/min/kg and an intrinsic clearance, rat liver microsomes of 474 mL/min/kg. It also gave an aqueous solubility of 2.15 µg/mL (≈ 4.48 µM).
Compound CC(C)c1cc(NC(=O)Cn2nc(-c3ccccc3)ccc2=O)[nH]n1 has an aqueous solubility of 6.51 µg/mL (≈ 19.3 µM).
In the case of Cc1nnc2ccc(NCCOC3CCCCCC3)nn12, the MDR1-MDCK efflux ratio is reported as 1.54, the intrinsic clearance, human liver microsomes is reported as 49.9 mL/min/kg and the intrinsic clearance, rat liver microsomes is reported as 901 mL/min/kg.
CONC(=O)c1c(C)nn(C)c1Cl showed an MDR1-MDCK efflux ratio of 0.868, an intrinsic clearance, human liver microsomes of at most 4.74 mL/min/kg and an intrinsic clearance, rat liver microsomes of at most 10.7 mL/min/kg.
Cc1cc(N2CCC(C(=O)NC3CCCCC3)CC2)nc(-c2ccncc2)n1 showed an intrinsic clearance, human liver microsomes of 67 mL/min/kg and an intrinsic clearance, rat liver microsomes of 193 mL/min/kg.
In the case of COc1ccc(S(=O)(=O)N2CCC[C@H](C(=O)Nc3cccc4ncccc34)C2)cc1, the intrinsic clearance, human liver microsomes is reported as 22.6 mL/min/kg and the intrinsic clearance, rat liver microsomes is reported as 611 mL/min/kg.
In the case of CC(C)(C)c1[nH]cnc1/C=c1\[nH]c(=O)/c(=C/c2ccccc2)[nH]c1=O, the MDR1-MDCK efflux ratio is reported as 7.19, the intrinsic clearance, human liver microsomes is reported as at most 4.74 mL/min/kg and the intrinsic clearance, rat liver microsomes is reported as 146 mL/min/kg.
Compound CNc1nc(-c2cc(OC)cc(OC)c2)ncc1F has an MDR1-MDCK efflux ratio of 0.408, an intrinsic clearance, human liver microsomes of 37.1 mL/min/kg and an intrinsic clearance, rat liver microsomes of 118 mL/min/kg. For the same compound, the aqueous solubility was 25.6 µg/mL (≈ 97.4 µM).
For CC(C)NCC(O)COc1cccc2ccccc12 (stereo not drawn), the fraction unbound, rat plasma was 0.223.
With O=C1CCCc2nc(Nc3nc(-c4ccccc4)c4ccccc4n3)ncc21 the aqueous solubility was 0.16 µg/mL (≈ 0.435 µM).
CCN1CCC(Oc2ncnc3c2c(C)c(C)n3C2CCCCC2)CC1 gave an intrinsic clearance, human liver microsomes of 31.7 mL/min/kg and an intrinsic clearance, rat liver microsomes of 725 mL/min/kg.
Compound COc1cc(CCNC2CCC3(CC2)OCCO3)ccc1F has an MDR1-MDCK efflux ratio of 1, an intrinsic clearance, human liver microsomes of 60.6 mL/min/kg and an intrinsic clearance, rat liver microsomes of 2240 mL/min/kg.
CN1C(=O)N(CC(=O)Nc2ccccc2-c2ccccc2)C(=O)C1(C)C gave an MDR1-MDCK efflux ratio of 12.9, an intrinsic clearance, human liver microsomes of 21.4 mL/min/kg and an intrinsic clearance, rat liver microsomes of 280 mL/min/kg. For the same compound, the aqueous solubility was 18.7 µg/mL (≈ 53.2 µM).
Work on Cc1nc(CC2CCN(S(=O)(=O)c3c(C)noc3C)CC2)cc(NC2CCCC2)n1 yielded an MDR1-MDCK efflux ratio of 11.4, an intrinsic clearance, human liver microsomes of 249 mL/min/kg and an intrinsic clearance, rat liver microsomes of 2420 mL/min/kg. For the same compound, the aqueous solubility was 60.5 µg/mL (≈ 139 µM).
In the case of CN(C)c1ccnc(C(=O)Nc2ccnn2-c2ccc(C#N)cc2)c1, the intrinsic clearance, human liver microsomes is reported as 75.2 mL/min/kg and the intrinsic clearance, rat liver microsomes is reported as 446 mL/min/kg.
Cc1ccc(NC(=O)c2c([O-])n(-c3ccc(C)cc3)n[n+]2Cc2ccccc2)cc1 showed an MDR1-MDCK efflux ratio of 1.02 and an aqueous solubility of 0.21 µg/mL (≈ 0.527 µM).
O=C1CN(C(=O)c2ccc(F)cc2)CCN1 gave an MDR1-MDCK efflux ratio of 2.27, an intrinsic clearance, human liver microsomes of at most 4.74 mL/min/kg and an intrinsic clearance, rat liver microsomes of at most 10.7 mL/min/kg. For the same compound, the aqueous solubility was 47 µg/mL (≈ 212 µM).
With CN(C)C1=N[C@@H]2[C@@H](O)[C@H](O)[C@@H](CO)O[C@@H]2S1 the MDR1-MDCK efflux ratio was 0.274, the intrinsic clearance, human liver microsomes was at most 4.74 mL/min/kg and the intrinsic clearance, rat liver microsomes was at most 10.7 mL/min/kg. For the same compound, the aqueous solubility was 36.7 µg/mL (≈ 148 µM).
With COc1ccc(CNC(=O)CCCOc2ccc(C(C)=O)cc2)cc1 the MDR1-MDCK efflux ratio was 1.02, the intrinsic clearance, human liver microsomes was 34.5 mL/min/kg and the intrinsic clearance, rat liver microsomes was 644 mL/min/kg. For the same compound, the aqueous solubility was 20.2 µg/mL (≈ 59.2 µM).
For CC(C)(C)Cc1nnc(-c2cnc3onc(C4CCCC4)c3c2)o1, the aqueous solubility was 3.99 µg/mL (≈ 12.2 µM).
Compound c1ccc(-n2ncc3c(-n4ccnc4)ncnc32)cc1 has an MDR1-MDCK efflux ratio of 0.618, an intrinsic clearance, human liver microsomes of 16 mL/min/kg and an intrinsic clearance, rat liver microsomes of 376 mL/min/kg. It also gave an aqueous solubility of 4.97 µg/mL (≈ 18.9 µM).
In the case of Cn1cnnc1CCn1ccnc1-c1cc2ccccc2s1, the MDR1-MDCK efflux ratio is reported as 134, the intrinsic clearance, human liver microsomes is reported as at most 4.74 mL/min/kg and the intrinsic clearance, rat liver microsomes is reported as 25.3 mL/min/kg. The aqueous solubility was 33 µg/mL (≈ 106 µM).
CCN(Cc1cccs1)C(=O)CN1CCC(n2c(=O)[nH]c3ccccc32)CC1 showed an intrinsic clearance, human liver microsomes of 151 mL/min/kg and an intrinsic clearance, rat liver microsomes of 2800 mL/min/kg.
Compound Cn1c(=O)n(Cc2cccnc2)c(=O)c2ccc(C(F)(F)F)nc21 has an MDR1-MDCK efflux ratio of 0.645, an intrinsic clearance, human liver microsomes of at most 4.74 mL/min/kg and an intrinsic clearance, rat liver microsomes of 83.7 mL/min/kg.
Work on Fc1cccc(Cn2nnc(-c3ccccc3)n2)c1F yielded an MDR1-MDCK efflux ratio of 0.358 and an aqueous solubility of 0.1 µg/mL (≈ 0.367 µM).
For C#CCNC(=O)CN1C(=O)c2ccccc2C1=O, the aqueous solubility was 38.9 µg/mL (≈ 161 µM).
O[C@@H]1C[C@@H](c2nc(-c3ccccc3)no2)N(Cc2ccccc2)C1 showed an MDR1-MDCK efflux ratio of 0.539, an intrinsic clearance, human liver microsomes of 54.2 mL/min/kg and an intrinsic clearance, rat liver microsomes of 908 mL/min/kg. The aqueous solubility was 41.6 µg/mL (≈ 129 µM).
C[C@@H](C(=O)N1CCCC1)N1CCC(n2c(=O)[nH]c3ccccc32)CC1 gave an MDR1-MDCK efflux ratio of 162, an intrinsic clearance, human liver microsomes of at most 4.74 mL/min/kg and an intrinsic clearance, rat liver microsomes of 64.5 mL/min/kg. The aqueous solubility was 40.6 µg/mL (≈ 119 µM).
Compound Cc1cc(C(=O)N(C)Cc2ccsc2)no1 has an MDR1-MDCK efflux ratio of 0.653, an intrinsic clearance, human liver microsomes of 11 mL/min/kg and an intrinsic clearance, rat liver microsomes of 241 mL/min/kg. The aqueous solubility was 34.1 µg/mL (≈ 144 µM).
Work on O=c1c(N2CCCC2)c(Cl)cnn1-c1ccccc1 yielded an aqueous solubility of 17.1 µg/mL (≈ 62.1 µM).
With Cc1nn(-c2ccccn2)c2nc(C3CC3)cc(C(=O)O)c12 the MDR1-MDCK efflux ratio was 2.52, the intrinsic clearance, human liver microsomes was 4.89 mL/min/kg and the intrinsic clearance, rat liver microsomes was at most 10.7 mL/min/kg. The aqueous solubility was 51.2 µg/mL (≈ 174 µM).
Compound O=C(NCCc1cnn[nH]1)C1Cc2ccccc2C1 has an MDR1-MDCK efflux ratio of 2.47, an intrinsic clearance, human liver microsomes of at most 4.74 mL/min/kg and an intrinsic clearance, rat liver microsomes of at most 10.7 mL/min/kg.
Nc1cncc(-c2ccc(CN3CCCCC3)cc2)c1 showed an MDR1-MDCK efflux ratio of 0.743, an intrinsic clearance, human liver microsomes of 40.7 mL/min/kg and an intrinsic clearance, rat liver microsomes of 56.3 mL/min/kg. It also gave an aqueous solubility of 26 µg/mL (≈ 97.1 µM).
For COc1cc(OC)cc(-c2c(C)ncnc2OC)c1, the MDR1-MDCK efflux ratio was 0.749, the intrinsic clearance, human liver microsomes was at most 4.74 mL/min/kg and the intrinsic clearance, rat liver microsomes was 107 mL/min/kg.
CNc1nc(N2CCCCC2)nc(N2CCCCC2)n1 showed an intrinsic clearance, human liver microsomes of 54.7 mL/min/kg, an intrinsic clearance, rat liver microsomes of 801 mL/min/kg and an aqueous solubility of 27 µg/mL (≈ 97.5 µM).
In the case of COc1cccc(C2NC(=O)NC(C)=C2C(=O)OCc2ccc3c(c2)OCO3)c1 (stereo not drawn), the aqueous solubility is reported as 18 µg/mL (≈ 45.5 µM).
Work on CN(Cc1ccccc1N1CCCC1)C(=O)c1cccc(Cn2ccnc2)c1 yielded an MDR1-MDCK efflux ratio of 21.7, an intrinsic clearance, human liver microsomes of 392 mL/min/kg and an intrinsic clearance, rat liver microsomes of 1520 mL/min/kg. For the same compound, the aqueous solubility was 61.6 µg/mL (≈ 164 µM).
Cc1cc(C)nc(N(C)CC(=O)NC2CC2)n1 gave an MDR1-MDCK efflux ratio of 0.884, an intrinsic clearance, human liver microsomes of at most 4.74 mL/min/kg and an intrinsic clearance, rat liver microsomes of 23.1 mL/min/kg. For the same compound, the aqueous solubility was 34.9 µg/mL (≈ 149 µM).
For Cc1ncsc1-c1cncc(CC2CCCN(C)C2)n1 (stereo not drawn), the MDR1-MDCK efflux ratio was 0.97, the intrinsic clearance, human liver microsomes was 32 mL/min/kg and the intrinsic clearance, rat liver microsomes was 108 mL/min/kg.
In the case of CCOc1nc(-c2ccc(Cl)c(Cl)c2)n(-c2cccc(NC(=O)c3ccc(F)cc3)c2)n1, the MDR1-MDCK efflux ratio is reported as 2.67 and the aqueous solubility is reported as 0.25 µg/mL (≈ 0.53 µM).
Work on Cc1ccc(=O)n(CC2(O)CCN(Cc3cccs3)CC2)n1 yielded an MDR1-MDCK efflux ratio of 4.22, an intrinsic clearance, human liver microsomes of at most 4.74 mL/min/kg and an intrinsic clearance, rat liver microsomes of 161 mL/min/kg.
O=C(Cc1ccccc1F)N1CCN(c2nccn3nc4c(c23)CCCC4)CC1 showed an MDR1-MDCK efflux ratio of 0.961, an intrinsic clearance, human liver microsomes of 132 mL/min/kg and an intrinsic clearance, rat liver microsomes of 784 mL/min/kg. The aqueous solubility was 56.1 µg/mL (≈ 143 µM).
